This is an account of results in publication PMC12830207, “Targeting the protein–protein interaction between the CDC37 cochaperone and client kinases by an allosteric RAF dimer breaker” (The Journal of Biological Chemistry, 2025).

The test system of assay [1] is MAPK proteins (BRAF, CRAF, MEK, pMEK, ERK, pERK). The settings on record: HCT116, braftide alone; cited from earlier work. The protocol: HCT116 cells were treated with 17-AAG alone or in combination with braftide (Fig. 5, C and D). HSP90 monotherapy (17-AAG) depleted CRAF kinase level at a concentration of 2 μM (Fig. 5C), whereas braftide monotherapy ([23]) depleted RAF kinase levels at a concentration of 10 μM. To investigate potential synergy, we assessed combinatorial treatments in HCT116 cells, using a fixed concentration of 500 nM of the primary drug (braftide) with increasing concentrations (0 to 1 μM) of the secondary drug (17-AAG) (Fig. 5D).

Another assay has as its system HCT116 proteome. Description: Global proteomic identification of braftide-regulated proteins (LC–MS/MS) in HCT116. The assay is classed as cell-based, human. The settings on record: HCT116, 10 μM braftide, 1 h. The protocol: HCT116 cells were treated in the absence and presence of 10 μM TAT–braftide, 1 h, 37 °C. Cell pellets were harvested in PBS and cryopreserved. Samples were sent to be lysed and identified through MS in three biological replicates (LC–MS/MS; The Wistar Institute). Data were processed through the previously reported GO analysis via the Panther database ([42]) and plotted on Origin (OriginLab Corporation). For the volcano plot, the cutoff for the presented data is p = 0.01 (∗∗), q value <0.05 (Student's t test value adjusted for multiple comparisons using the Benjamini–Hochberg false discovery rate correction) and detected in at least two or more replicates. A total of 5405 proteins were identified, emphasizing a twofold change in NeonGreen and in red. Source data are available in the supporting information files.

Assay [2] relates to selected kinases in HCT116 cells. Description: Immunoblot of selected kinases in HCT116 cells. The note with it: Western blot; for protein levels of Chk2, PKCδ, and SRPK1: HCT116, braftide, Fig. S12A. The assay is classed as cell-based. As for the experimental part:
Western blot band densities were quantified with ImageJ software (National Institutes of Health) and normalized to the indicated loading control. Statistical significance was determined through one-/two-way ANOVA, where indicated, followed by Tukey's honest significant difference post hoc test with corresponding p values (∗p < 0.05, ∗∗p < 0.002, ∗∗∗p < 0.0002, and ∗∗∗∗p < 0.0001). All graph bars represent the mean ± SD with individual data points per biological replicate with corresponding p values.

In assay [3] the test system is BRAF–CDC37/HSP90 chaperone complex. Kind of assay: Co-IP of BRAF-FLAG with endogenous CDC37–HSP90 chaperone complex. The format is cell-based, human (HEK293). The settings on record: HEK293, 50 μM braftide, 4 h, bortezomib pretreatment, three biological replicates. The protocol: (§1) HEK293 cells were seeded at 1(10)^6 cells per well for a 6-well plate or 5(10)^6 for 10 cm dishes and incubated until 40% to 60% confluency. Transfection was carried out using a 1:3 DNA:PEI-MAX ratio in OPTI-MEM and allowed 48 h for protein expression. For peptide assays, 48 h post-transfection, cells were treated with TAT–braftide carried in OPTI-MEM at indicated concentrations. Cells were harvested in cold PBS. Harvested cells were lysed in 4% SDS or modified radioimmunoprecipitation assay (RIPA) for co-IP experiments. Quantification of total protein by the bicinchoninic acid assay was carried out according to the manufacturer's protocols (Pierce; catalog no.: 23225).
(§2) Transfected HEK293 cells were treated with the indicated treatments and harvested in cold PBS. […] Samples were analyzed via immunoblot.
(§3) Western blot band densities were quantified with ImageJ software (National Institutes of Health) and normalized to the indicated loading control. Statistical significance was determined through one-/two-way ANOVA, where indicated, followed by Tukey's honest significant difference post hoc test with corresponding p values (∗p < 0.05, ∗∗p < 0.002, ∗∗∗p < 0.0002, and ∗∗∗∗p < 0.0001). […]

The subject of another assay is BRAF–CRAF protein levels. The settings on record: cited from earlier work. An excerpt:
RAF family members are known clients of the HSP90–CDC37 chaperone complex and rely on their interaction with the CDC37–HSP90 chaperone complex to maintain basal protein stability ([4]). […] Although the HSP90 and CDC37 interface is vast and dynamic ([7]), the αC helix–β4 loop is a well-defined structural motif conserved across RAF and other kinases ([29]). The RAF DIF, being ...

In assay [4] the test system is CDC37–CRAF interaction. Kind of assay: Co-IP of CDC37-FLAG with CRAF-HA in HCT116. The format is cell-based. The note with it: HCT116, 5 µM braftide, three biological replicates.
The next assay deals with CDC37–BRAF interaction. Description: Co-IP of CDC37-FLAG with BRAF-V5 in HCT116. The format is cell-based. The settings on record: HCT116, 5 µM braftide, three biological replicates. As for the experimental part:
as §1, §2, §3

For assay [5], the system named is CDC37–CRAF interaction. Kind of assay: Co-IP of CDC37-FLAG with CRAF-HA in HEK293. The assay is classed as cell-based, human (HEK293). The note with it: HEK293, 25 μM braftide, bortezomib pretreatment. The protocol: as §1, §2, §3
For the next assay, the system named is HCT116 cells. Description: Annexin V apoptosis assay, HCT116. The assay is classed as cell-based. The settings on record: for apoptotic cell death, braftide + 17-AAG combination versus 17-AAG monotherapy: HCT116, Annexin V, n=3, Fig. S12, B and C. The protocol:
HEK293 cells and HCT116 cells were treated with either control or braftide at the indicated concentrations for 4 h. After treatment, both the floating and adherent cell populations were collected and adjusted with PBS (final concentration: 1 × 10^5 cells/ml). The cells were then mixed with the Annexin V (Cytex; FCCH100108) reagent in a 5:1 ratio (100 μl of cells mixed with 20 μl of Annexin V reagent) and allowed to stain in the dark, at room temperature for 15 min. The cells were then analyzed on a Guava Muse Cell Analyzer (Millipore).

For another assay, the system named is CDC37–AKT1 interaction. Kind of assay: Co-IP of CDC37-FLAG with AKT1. The assay is classed as cell-based, human (HEK293). The note with it: HEK293, 25 µM braftide, bortezomib pretreated, n=4. The protocol: as §1, §2, §3

Entries after “also recorded” stand apart in the source; their conditions may differ.

On to “GRKKRRQRRRPQ-miniPEG-TRHVNILLFM [Braftide]”, for which, in assay [1], the “concentration at which RAF kinase levels are depleted, braftide monotherapy” value is 10 µM. Further, the “FoldChange Treat/NoTreat, COA3” value with HCT116 proteome (protein COA3 (Q9Y2R0), q-value 1.02E-05, LFQ, missing values imputed) was determined as 76.35. Moreover, in the assay with HCT116 proteome (protein HPX (P02790), q-value 0.000814707, LFQ), the “FoldChange Treat/NoTreat, HPX” value is listed as 99.13. For the same substance, the “FoldChange Treat/NoTreat, PDK2” value in the assay with HCT116 proteome (protein PDK2 (Q15119), q-value 1.74E-05, LFQ, missing values imputed) was found to be 40.24. Further, the “FoldChange Treat/NoTreat, RNF169” value in the assay on HCT116 proteome (protein RNF169 (Q8NCN4), q-value 4.15E-05, LFQ, missing values imputed) amounted to 48.52. In addition, the “FoldChange Treat/NoTreat, TOMM6” value in the assay on HCT116 proteome (protein TOMM6 (Q96B49), q-value 1.36E-06, LFQ, missing values imputed) is 129.15. The “protein expression levels of downregulated kinases” value in assay [2] (HCT116, 10 μM braftide, 1 h, n = 9) is “reduced protein expression levels of GSK3α, S6, AKT1, TAK, FAK, BRAF, CRAF, MEK1/2, and ERK1/2”. The “protein levels of Chk2, PKCδ, and SRPK1” value in [2] is “unaffected by Braftide treatment”; in assay [2] (listed as braftide), “protein levels of these kinases remain unchanged after braftide treatment”. In addition, the “association of BRAF with CDC37 and HSP90” value in assay [3] was “reduced their association with CDC37 and HSP90 compared with the nontreated control”. Moreover, in the assay on BRAF–CRAF protein levels, the “degradation of BRAF–CRAF protein levels” value is “induces the degradation of BRAF–CRAF protein levels through the ubiquitin-26s proteasomal degradation system”. The “CDC37–CRAF interaction” value was “decreases its association with coimmunoprecipitated BRAF-V5 and CRAF-HA” with CDC37–CRAF interaction [4]; “reduced the CDC37–RAF interaction at lower doses than in HEK293 cells” in the assay on CDC37–CRAF interaction [4] (listed as braftide). The “CDC37–BRAF interaction” value in the assay with CDC37–BRAF interaction was “decreases its association with coimmunoprecipitated BRAF-V5 and CRAF-HA”; with CDC37–BRAF interaction (listed as braftide) it was “reduced the CDC37–RAF interaction at lower doses than in HEK293 cells”. In addition, the “CDC37–CRAF complex” value in the assay on CDC37–CRAF interaction [5] was “reduced the CDC37–client BRAF–CRAF complex”. In addition, the “apoptosis (Annexin V), HCT116” value in the assay with HCT116 cells (0, 5, 10, 25, 50, 75, and 100 μM braftide, 4 h, n = 3, listed as braftide) is “triggered dose-dependent apoptosis; also recorded: HCT116 cells showed higher sensitivity to braftide compared with HEK293”. For the same substance, the “apoptotic cell death, braftide + 17-AAG combination versus 17-AAG monotherapy” value in the assay with HCT116 cells was “synergizes with 17-AAG in HCT116 cells to trigger cell death at lower treatment concentrations”; in the assay on HCT116 cells (listed as braftide) it was “significant increase in apoptotic cell death with the combination therapy compared with monotherapy”. Further, the “association of CDC37 with AKT1” value in the assay with CDC37–AKT1 interaction is “disrupts client AKT1 from CDC37-FLAG in HEK293 cells”; in the assay on CDC37–AKT1 interaction (listed as braftide) it was “reduced association of CDC37 with AKT1”.
